Key:
Human betaherpesvirus 5 [1] = assay: Antiviral activity against human Cytomegalovirus infected in human ARPE-19 cells assessed as reduction in infection rate incubated for 10 days by Hoechst 33342 staining based microscopic analysis; type: functional, cell-based
[2] = Cytotoxicity against human MRC5 cells assessed as reduction in cell viability incubated for 6 days by Hoechst 33342 staining based microscopic analysis; settings: time 6 day
[3] = Selectivity index, ratio of CC50 for human MRC5 cells to IC50 for human Cytomegalovirus infected in human ARPE-19 cells incubated for 10 days; type: toxicity, cell-based; settings: time 6 day, read-out: Ratio CC50/IC50
Human betaherpesvirus 5 [4] = assay: Antiviral activity against Human Cytomegalovirus infected in human MRC5 cells assessed as reduction in infection rate incubated for 6 days by Hoechst 33342 staining based microscopic analysis; type: functional, cell-based
[5] = Selectivity index, ratio of CC50 for human MRC5 cells to IC50 for human Cytomegalovirus infected in human MRC5 cells incubated for 6 days; type: toxicity, cell-based; settings: time 6 day, read-out: Ratio CC50/IC50
Human betaherpesvirus 5 [6] = assay: Antiviral activity against human Cytomegalovirus infected in human ARPE-19 cells assessed as reduction in infection rate incubated for 6 days by Hoechst 33342 staining based microscopic analysis; type: functional, cell-based
[7] = Cytotoxicity against human ARPE-19 cells assessed as reduction in cell viability incubated for 6 days by Hoechst 33342 staining based microscopic analysis; settings: time 6 day
[8] = Human betaherpesvirus 5, MRC5, 144 h, read-out: IC50

IC50 (Human betaherpesvirus 5 [1]; Human betaherpesvirus 5, ARPE-19, 240 h, read-out: IC50) [µM] | IC50 (Human betaherpesvirus 5 [6]; arpe-19) | IC50 (Human betaherpesvirus 5 [1]; arpe-19) | IC50 (Human betaherpesvirus 5 [6]; Human betaherpesvirus 5, ARPE-19, 144 h, read-out: IC50) [µM] | Compound | CC50 at 144 h [2] [µM] | selectivity ratio at 144 h [3] | IC50 (Human betaherpesvirus 5 [4]; [8]) [µM] | selectivity ratio at 144 h [5] | IC50 (Human betaherpesvirus 5 [4]; mrc5) | CC50 at 144 h [7] [µM]
0.31 | – | – | – | Fc1cc(F)c(F)c(-c2c3ccc([nH]3)c(-c3c(F)c(F)c(F)c(F)c3F)c3nc(c4ccc([nH]4)c(-c4c(F)c(F)c(F)c(F)c4F)c4ccc2[nH]4)C=C3)c1F | 3.03 | 151 | 0.31 | 9.77 | – | –
– | Not Active | – | – | O=S(=O)(O)CCNc1c(F)c(F)c(-c2c3nc(c4ccc([nH]4)c(-c4c(F)c(F)c(NCCS(=O)(=O)O)c(F)c4F)c4ccc([nH]4)c(-c4c(F)c(F)c(NCCS(=O)(=O)O)c(F)c4F)c4ccc2[nH]4)C=C3)c(F)c1F | > 50 | – | – | – | Not Active | > 50
– | Not Active | – | – | COc1ccc(F)c(-c2c3nc(c4ccc([nH]4)c(-c4cc(OC)ccc4F)c4ccc([nH]4)c(-c4cc(OC)ccc4F)c4ccc2[nH]4)C=C3)c1 | > 50 | – | – | – | Not Active | > 50
– | – | – | – | Fc1cc(F)c(F)c(-c2c3nc(c4ccc([nH]4)c(-c4c(F)c(F)cc(F)c4F)c4ccc([nH]4)c(-c4ccccc4)c4ccc2[nH]4)C=C3)c1F | 22.3 | – | 6.6 | 3.38 | – | –
– | – | – | – | O=[N+]([O-])c1cc(F)cc(-c2c3ccc([nH]3)c(-c3c(F)c(F)cc(F)c3F)c3nc(c4ccc([nH]4)c(-c4c(F)c(F)cc(F)c4F)c4ccc2[nH]4)C=C3)c1 | 50 | – | – | – | Not Active | –
– | Not Active | – | – | Fc1cc(-c2c3nc(c4ccc([nH]4)c(-c4cc(F)c(F)c(F)c4)c4ccc([nH]4)c(-c4cc(F)c(F)c(F)c4)c4ccc2[nH]4)C=C3)cc(F)c1F | > 50 | – | 6.3 | > 7 | – | > 50
– | – | Not Active | – | CN(C)c1c(F)c(F)c(-c2c3ccc([nH]3)c(-c3c(F)c(F)cc(F)c3F)c3nc(c4ccc([nH]4)c(-c4c(F)c(F)cc(F)c4F)c4ccc2[nH]4)C=C3)c(F)c1F | > 50 | – | 2.11 | > 23.6 | – | –
– | Not Active | – | – | Fc1ccccc1-c1c2nc(c3ccc([nH]3)c(-c3ccccc3F)c3ccc([nH]3)c(-c3ccccc3F)c3ccc1[nH]3)C=C2 | > 50 | – | – | – | Not Active | > 50
– | – | – | – | O=[N+]([O-])c1cc(F)cc(-c2c3nc(c4ccc([nH]4)c(-c4cc(F)cc([N+](=O)[O-])c4)c4ccc([nH]4)c(-c4c(F)c(F)cc(F)c4F)c4ccc2[nH]4)C=C3)c1 | 36.7 | – | – | – | Not Active | –
– | Not Active | – | – | Fc1cc(F)cc(-c2c3nc(c4ccc([nH]4)c(-c4cc(F)cc(F)c4)c4ccc([nH]4)c(-c4cc(F)cc(F)c4)c4ccc2[nH]4)C=C3)c1 | > 50 | – | – | – | Not Active | > 50
– | Not Active | – | – | Fc1ccc(F)c(-c2c3nc(c4ccc([nH]4)c(-c4cc(F)ccc4F)c4ccc([nH]4)c(-c4cc(F)ccc4F)c4ccc2[nH]4)C=C3)c1 | > 50 | – | – | – | Not Active | > 50
– | – | – | – | Fc1cc(F)c(F)c(-c2c3nc(c4ccc([nH]4)c(-c4c(F)c(F)cc(F)c4F)c4ccc([nH]4)c(-c4cccnc4)c4ccc2[nH]4)C=C3)c1F | 12.8 | – | 1.1 | 11.6 | – | –
– | Not Active | – | – | Cc1ccc(F)c(-c2c3nc(c4ccc([nH]4)c(-c4cc(C)ccc4F)c4ccc([nH]4)c(-c4cc(C)ccc4F)c4ccc2[nH]4)C=C3)c1 | > 50 | – | – | – | Not Active | > 50
– | – | – | 0.15 | Fc1cc(-c2c3nc(c4ccc([nH]4)c(-c4ccnc(F)c4)c4ccc([nH]4)c(-c4ccnc(F)c4)c4ccc2[nH]4)C=C3)ccn1 | 6.25 | – | 0.46 | 13 | – | 6.17

Source: ChEMBL document CHEMBL4699427, “A3- and A2B-fluorocorroles: synthesis, X-ray characterization and antiviral activity evaluation against human cytomegalovirus infection” (RSC Med Chem, 2020)
